Results reported in patent US11319289B2, “5-hydroxy pyridine-based compound for use as P2X1 and P2X3 receptor antagonist and pharmaceutical composition comprising same” (GWANGJU INSTITUTE OF SCIENCE AND TECHNOLOGY, priority 2017, dated 2022).
Entries after “also recorded” stand apart in the source; their conditions may differ.

What was measured:
rats = assay: Behavioral test (righting, placing-stepping, pinna and corneal reflexes); format: in vivo, rat; conditions: maximum dose, intrathecal or intravenous administration
Protocol: 4-1. Behavioral Efficacy Test Method
Additional rats received the highest doses of drugs used to evaluate behavioral changes at 5, 10, 20, 30, 40, 50, and 60 min after intrathecal or intravenous administration to caudal vein. Motor functions were examined using the righting and placing-stepping reflexes. The righting reflex was evaluated by an immediate coordinated twisting of the body to an upright position when placing the rat horizontally with its back on the table. The placing-stepping reflex was induced by drawing the dorsum of hind paw across the edge of the table. Rats normally attempt to put their paws forward into a position for walking. Pinna and corneal reflexes were also assessed and judged as present or absent. Other abnormal behaviors, such as serpentine movement or tremors, were also evaluated.

[1] = Metabolic stability in microsomes, human; format: in vitro ADME; conditions: 30 min
[2] = tested on: neuropathic pain (NeP) animal models; assay: Efficacy in neuropathic pain (NeP) animal models, model not specified; format: in vivo, rat
Protocol: 3-1. Evaluation of In Vivo Efficacy
The antiallodynic effects (mechanical allodynia) were evaluated using rats according to a previously reported protocol. In order to evaluate the withdrawal threshold, rats (naive, SNL and CIPN) were placed on a plastic mesh floor of individual plastic cages. The rats were allowed to acclimate to the environment for 30 minutes and examined after intrathecal or intravenous administration to the caudal vein. The control group received the same volume of vehicle (intrathecal administration of saline or DMSO, intravenous administration of DMSO:PEG:PBS=1:6:3 v/v %) as the experimental groups. Evaluation of the mechanical withdrawal threshold was measured in responses to the application of calibrated von Frey filaments (Stoelting, Wood Dale, Ill., USA) to the hind paw of the rats through the holes on the mesh floor underneath the cage using the ‘up and down method’. A series of eight von Frey filaments (0.4, 0.7, 1.2, 2.0, 3.6, 5.5, 8.5, and 15 g) was applied perpendicular to the sole of the hind paw for 5 seconds while the head was bent. Active withdrawal or flinching of the paw was considered as a positive reaction. The absence of response in the rats, when a pressure was applied to 15 g von Frey filament, was used as a cut-off value. Only rats with definite allodynia (i.e., mechanical withdrawal threshold: less than 4 g after SNL or less than 5 g after CIPN) were tested. The rats after termination of the experiments were euthanized through an overdose of sevoflurane. The withdrawal threshold data for the von Frey filament test was calculated as % MPE (maximum possible effect) based on the following Calculation Equation: % MPE=[(Post-drug threshold−Post-injured baseline threshold)/(Cutoff threshold−post-injured baseline threshold)×100]. Dose-response data were analyzed using Scheffe's post hoc test and one-way analysis of variance (ANOVA).

[3] = molecular target: T1, mouse P2X1 receptor (mP2X1) (Mus musculus, UniProt P51576); assay: Two-electrode voltage clamp assay, recombinant mP2X1 receptor in Xenopus oocytes; format: cell-based; conditions: 10 μM compound, 2 μM ATP, mean±SEM n≥3 (footnote c), read-out: mP2X1 % inhibitory effect at 10 μM
T1 construct: expressed in transfected cells; host or cells: Xenopus oocytes (cRNA microinjection)
T1 sequence (P51576 1-399): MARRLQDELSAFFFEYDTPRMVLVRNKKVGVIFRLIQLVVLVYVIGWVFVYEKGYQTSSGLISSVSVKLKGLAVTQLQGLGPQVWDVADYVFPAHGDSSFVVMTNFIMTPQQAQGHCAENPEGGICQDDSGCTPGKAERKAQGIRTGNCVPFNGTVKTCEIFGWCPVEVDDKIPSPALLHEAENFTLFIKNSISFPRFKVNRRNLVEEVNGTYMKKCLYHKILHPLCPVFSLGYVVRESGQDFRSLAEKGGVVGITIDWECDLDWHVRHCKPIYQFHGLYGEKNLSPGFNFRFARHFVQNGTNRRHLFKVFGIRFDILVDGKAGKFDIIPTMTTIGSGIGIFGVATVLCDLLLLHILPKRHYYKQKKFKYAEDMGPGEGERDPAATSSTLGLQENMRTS
Protocol: (§1) 1-1. Two-Electrode Voltage Clamp Assay for Recombinant mP2X1 and hP2X3 Receptors
(§2) Xenopus oocytes were isolated and incubated with 270 U/mg of collagenase at 23 to 24° C. for 1.5 hours. Defolliculated oocytes were kept in Barth's solution at 18° C. After 1 day, the defolliculated oocytes were each microinjected cytosolically with mP2X1 and human P2X3 receptor cRNA ([…], 1 μg/mL), incubated for 24 hours at 18° C. in Barth's solution. The cRNA-injected oocytes were kept for 12 days at 4° C. ATP-activated membrane currents (Vh=−70 mV) were recorded from the cRNA-injected oocytes using the two-electrode voltage clamp technique (Axoclamp 2B amplifier). Voltage recording ([…] tip resistance) and current-recording microelectrodes (5 MΩ tip resistance) were filled with 3.0 M KCl. Oocytes were placed in an electrophysiological chamber continuously superfused with Ringer's solution (5 mL/min, at 18° C.) containing 110 mM NaCl, 2.5 mM KCl, 5 mM HEPES and 1.8 mM BaCl2, with pH adjusted to 7.5. To induce an evoked current, 2 μM ATP was superfused for 60 to 120 seconds and then washed for 20 min. For data analysis, the ATP-evoked current was normalized at pH 7.5. The compounds were introduced to the fixed oocytes 20 minutes prior to ATP exposure in the electrophysiological chamber. IC50 values (the concentration of the compound required to inhibit the ATP response by 50%) were determined by Hill plots designed using the Chemical Formula: log(I/Imax−1), where I is the current evoked by ATP in the presence of an antagonist. Data are presented as mean±SEM (n≥3) from different batches of oocytes.
(§3) In order to investigate the structure-activity relationship (SAR) of the compounds synthesized in the present invention, the antagonistic activity was evaluated by a two-electrode voltage clamp (TEVC) assay in Xenopus oocytes expressing the recombinant mP2X1 or hP2X3, respectively. The hP2X7R antagonistic activity was assessed using an ethidium ion accumulation assay in human HEK293 cells stably expressing the recombinant human P2X7R.

[4] = molecular target: T2, human P2X3 receptor (hP2X3) (Homo sapiens, UniProt P56373); assay: Two-electrode voltage clamp assay, recombinant hP2X3 receptor in Xenopus oocytes; format: cell-based; conditions: for IC50: 2 μM ATP-evoked current, Xenopus oocytes, mean±SEM n≥3 (footnote d)
T2 construct: expressed in transfected cells; host or cells: Xenopus oocytes (cRNA microinjection)
T2 sequence (P56373 1-397): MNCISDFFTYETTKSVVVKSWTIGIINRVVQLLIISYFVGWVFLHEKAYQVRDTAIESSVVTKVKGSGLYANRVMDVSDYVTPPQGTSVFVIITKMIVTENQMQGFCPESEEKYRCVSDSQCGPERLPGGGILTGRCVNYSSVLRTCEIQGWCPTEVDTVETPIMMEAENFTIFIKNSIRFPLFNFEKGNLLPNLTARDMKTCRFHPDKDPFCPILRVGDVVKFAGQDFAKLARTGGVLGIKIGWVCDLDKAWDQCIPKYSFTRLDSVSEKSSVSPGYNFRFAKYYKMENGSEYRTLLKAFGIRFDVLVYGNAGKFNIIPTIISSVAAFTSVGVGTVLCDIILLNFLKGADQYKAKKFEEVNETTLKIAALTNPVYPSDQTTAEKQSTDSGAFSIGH
Protocol: as §1, §2, §3

pinna and corneal reflexes (rats) | righting and position-stepping reflexes (rats) | Metabolic stability, microsomes, Human [1] | inhibition at 10 µM [3] | IC50 [4] | selectivity for hP2X3R to mP2X1R ([4]; hP2X3R versus mP2X1R) | SMILES | abnormal behavior changes (rats) | antiallodynic effect upon intraperitoneal and intravenous administration ([2]; NeP animal models, i.p. and i.v.) | antiallodynic effect upon intramedullary administration ([2]; NeP rats) | in vivo efficacy in early animal experiments ([2]; early animal experiments)
present | normal | 0 % remaining after 30 min | – | – | – | CCCc1nc(Cc2cccc(Oc3ccccc3)c2)c(C)c(C(=O)OC)c1O [Compound 28, Methyl 3-hydroxy-5-methyl-6-(3-phenoxybenzyl)-2-propylisonicotinate] | no obvious abnormal behavior changes were observed | – | – | –
present | normal | 3 % remaining after 30 min | 23.3 ± 4.8% | 245 nM | – | CCCc1nc(Cc2cccc(Oc3ccccc3)c2)c(C)c(C(=O)O)c1O [Compound 29, 3-Hydroxy-5-methyl-6-(3-phenoxybenzyl)-2-propylisonicotinic acid] | no obvious abnormal behavior changes were observed | no antiallodynic effect; also recorded: no pharmacological activity was observed; also recorded: did not provide an antiallodynic effect | potent antiallodynic effect | –
– | – | – | 42.8 ± 7.4% | 93 nM | about 100 fold | CCCc1nc(CCc2ccc(OC)cc2)c(C(=O)O)c(C(=O)O)c1O [Compound 13d, 5-Hydroxy-2-(4-methoxyphenethyl)-6-propylpyridine-3,4-dicarboxylic acid] | – | – | – | weak in vivo efficacy
